From patent US8110528B2, “Active ingredient combinations with insecticidal properties” (Bayer Cropscience AG, priority 2006, dated 2012)

Columns and labels:
Phaedon cochleariae = Phaedon cochleariae larvae test (cabbage leaf dip); assay type: in vivo, mustard beetle (Phaedon cochleariae) larvae; details: cabbage leaves dipped
Excerpt: (§1) The expected activity for a given combination of two active compounds can be calculated according to S. R. Colby, Weeds 15 (1967), 20-22 as follows: • If • X is the kill rate, expressed in % of the untreated control, when active compound A is applied at an application rate of m g/ha or at a concentration of m ppm, • Y is the kill rate, expressed in % of the untreated control, when active compound B is applied at an application rate of n g/ha or at a concentration of n ppm and • E is the kill rate, expressed in % of the untreated control, when active compounds A and B are applied at application rates of m and n g/ha or at a concentration of m and n ppm, then
(§2) If the actual insecticidal kill rate is greater than calculated, the kill of the combination is superadditive, i.e. there is a synergistic effect. In this case, the actual observed kill rate has to be greater than the value for the expected kill rate (E) calculated from the formula given above.
• Solvent: 7 parts by weight of dimethylformamide • Emulsifier: 2 parts by weight of alkylaryl polyglycol ether
To produce a suitable preparation of active compound, 1 part by weight of active compound is mixed with the stated amounts of solvent and emulsifier, and the concentrate is diluted with emulsifier-containing water to the desired concentration.
Cabbage leaves (Brassica oleracea) are treated by being dipped into the preparation of active compound of the desired concentration and populated with larvae of the mustard beetle (Phaedon cochleariae) while the leaves are still moist.
After the desired period of time, the kill in % is determined. 100% means that all beetle larvae have been killed; 0% means that none of the beetle larvae have been killed. The kill rates determined are entered into the Colby formula (see sheet 1).

Myzus persicae = Myzus persicae test (cabbage leaf dip); assay type: in vivo, green peach aphid (Myzus persicae); details: cabbage leaves dipped
Excerpt: as §1, §2
• Solvent: 7 parts by weight of dimethylformamide • Emulsifier: 2 parts by weight of alkylaryl polyglycol ether […]
After the desired period of time, the kill in % is determined. […] The kill rates determined are entered into the Colby formula (see sheet 1).

O=C1C=C(N(Cc2ccc(Cl)nc2)C2CC2)CO1 [compound (Ib)]
Kill in % after 6d (Phaedon cochleariae; 20 ppm): 11%
Kill in % after 6d (Myzus persicae; 0.8 ppm): 25%

CN/C(=N\[N+](=O)[O-])NCc1cnc(Cl)s1 [clothianidin]
Kill in % after 4d (Phaedon cochleariae; 4 ppm): 25%
Kill in % after 6d (Phaedon cochleariae; 4 ppm): 21%
Kill in % after 6d (Myzus persicae; 0.16 ppm): 35%

CN(Cc1ccc(Cl)nc1)C1=CC(=O)OC1 [compound (Ia)]
Kill in % after 4d (Phaedon cochleariae; 20 ppm): 5%
